Data taken from ChEMBL document CHEMBL1201862, “PubChem BioAssay data set” (2004).
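Cultured in 96-well plates, cells were exposed to test compound for 48 hours across five concentrations. At the GI50, growth is halved.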 Activity calls are given as the source filed them. Rule as the data show it: active = GI50 up to about 1.1 µM and inactive = higher.

How the values were obtained:
Assay in all cases: NCI anticancer screen, dose series, 48 h
SNB-19 = test system: SNB-19
UO-31 = test system: UO-31
SF-295 = test system: SF-295
HOP-92 = test system: HOP-92
RPMI-8226 = test system: RPMI-8226
SNB-75 = test system: SNB-75
SR = test system: SR
K562 = test system: K562
RXF 393 = test system: RXF 393
SK-OV-3 = test system: SK-OV-3
NCI-H226 = test system: NCI-H226
OVCAR-4 = test system: OVCAR-4
COLO 205 = test system: COLO 205
SF-268 = test system: SF-268
IGROV-1 = test system: IGROV-1
OVCAR-5 = test system: OVCAR-5
NCI-H460 = test system: NCI-H460
786-0 = test system: 786-0
MCF7 = test system: MCF7

Measured: GI50

O=C(O)CNc1c2ccccc2nc2ccccc12
inactive: SNB-19 > 100 µM | UO-31 50.6 µM | SF-295 > 100 µM | HOP-92 > 100 µM | RPMI-8226 56.8 µM | SNB-75 > 100 µM | SR > 100 µM | K562 > 100 µM | RXF 393 > 100 µM | SK-OV-3 > 100 µM | NCI-H226 > 100 µM | OVCAR-4 22.1 µM | COLO 205 > 100 µM | SF-268 > 100 µM | IGROV-1 > 100 µM | OVCAR-5 > 100 µM | NCI-H460 > 100 µM | 786-0 > 100 µM

c1ccc(COCC2OC3c4ccccc4COC3C2OCc2ccccc2)cc1 (stereo unspecified)
inactive: SNB-19 > 100 µM | UO-31 > 100 µM | SF-295 77.3 µM | HOP-92 19.4 µM | RPMI-8226 63 µM | SNB-75 39.6 µM | SR 57.8 µM | K562 57.5 µM | RXF 393 32 µM | SK-OV-3 > 100 µM | NCI-H226 > 100 µM | OVCAR-4 > 100 µM | COLO 205 > 100 µM | IGROV-1 > 100 µM | OVCAR-5 > 100 µM | NCI-H460 71.6 µM | 786-0 > 100 µM

Cc1cc(=O)n(-c2ccccc2)c(=O)o1
inactive: SNB-19 > 100 µM | UO-31 > 100 µM | SF-295 49.5 µM | HOP-92 > 100 µM | RPMI-8226 > 100 µM | SNB-75 > 100 µM | SR > 100 µM | K562 > 100 µM | RXF 393 > 100 µM | SK-OV-3 > 100 µM | NCI-H226 > 100 µM | OVCAR-4 > 100 µM | COLO 205 > 100 µM | SF-268 > 100 µM | IGROV-1 > 100 µM | OVCAR-5 > 100 µM | NCI-H460 > 100 µM | 786-0 > 100 µM

CC1OC(n2cc(C(F)(F)F)c(=O)[nH]c2=O)C=CC1=O (stereo unspecified)
inactive: SNB-19 16.4 µM | UO-31 18.2 µM | SF-295 27.6 µM | HOP-92 23.9 µM | RPMI-8226 13.5 µM | SNB-75 16 µM | SR 12.7 µM | K562 27.5 µM | SK-OV-3 19.6 µM | NCI-H226 28.4 µM | OVCAR-4 13.4 µM | COLO 205 19.3 µM | SF-268 39.2 µM | IGROV-1 20 µM | OVCAR-5 19.4 µM | NCI-H460 23.5 µM | 786-0 18.4 µM

N#CC1(C=O)c2ccccc2C=CN1C(=O)c1ccccc1 (stereo unspecified)
inactive: SNB-19 58.3 µM | UO-31 33.3 µM | HOP-92 23.4 µM | SNB-75 15.1 µM | SR 18.5 µM | K562 29.6 µM | RXF 393 20.5 µM | NCI-H226 61.9 µM | OVCAR-4 34.9 µM | COLO 205 37.3 µM | SF-268 70.3 µM | IGROV-1 26.9 µM | NCI-H460 73.6 µM | 786-0 31.7 µM

COc1cccc(C2c3cc4c(cc3OC(N3CCCC3)C2c2ccccc2)OCO4)c1O (stereo unspecified)
inactive: SNB-19 5.57 µM | UO-31 3.46 µM | SF-295 3.74 µM | RPMI-8226 5.69 µM | SNB-75 5.74 µM | SR 4.76 µM | K562 5.35 µM | COLO 205 7.24 µM | SF-268 9.02 µM | IGROV-1 7.59 µM | OVCAR-5 25.2 µM | MCF7 8.65 µM | NCI-H460 8.22 µM | 786-0 8.32 µM

CC(=O)OCC1OC(N2C(=O)C(=O)c3ccccc32)C(OC(C)=O)C(OC(C)=O)C1OC(C)=O (stereo unspecified)
inactive: SNB-19 > 100 µM | UO-31 > 100 µM | SF-295 > 100 µM | HOP-92 > 100 µM | RPMI-8226 > 100 µM | SNB-75 > 100 µM | SR > 100 µM | K562 > 100 µM | RXF 393 > 100 µM | SK-OV-3 > 100 µM | NCI-H226 > 100 µM | OVCAR-4 > 100 µM | COLO 205 > 100 µM | SF-268 > 100 µM | IGROV-1 > 100 µM | NCI-H460 > 100 µM | 786-0 > 100 µM

CC1(C)[C@@H](Cn2cnc3c(Cl)nc(N)nc32)CC[C@@]1(C)CO
inactive: SNB-19 83.4 µM | UO-31 3.74 µM | SF-295 > 100 µM | HOP-92 > 100 µM | RPMI-8226 24.2 µM | SNB-75 > 100 µM | K562 > 100 µM | RXF 393 65.8 µM | SK-OV-3 > 100 µM | NCI-H226 12.7 µM | OVCAR-4 > 100 µM | COLO 205 51.5 µM | SF-268 20.8 µM | OVCAR-5 > 100 µM | MCF7 > 100 µM | 786-0 > 100 µM
